Source: patent publication US20100041669A1, “4-(HETEROCYCLYL)ALKYL-N-(ARYLSULFONYL)INDOLE COMPOUNDS AND THEIR USE AS 5-HT6 LIGANDS” (priority 2007, published 2010)
pKi: −log10 of the molar value. Structures can show the parent of a compound that is named as a salt.

Columns and labels:
human 5-HT6 receptor = target: T1, human 5-HT6 receptor (Homo sapiens, UniProt P50406); assay: Binding assay for human 5-HT6 receptor ([3H]LSD radioligand); details: human recombinant receptor, [3H]LSD 1.5 nM, 60 minutes at 37° C.; read-out: Radiogland binding data at 5-HT6 R (h) Ki
T1 construct: expressed in transfected cells; host or cells: HEK293
T1 sequence (P50406 whole entry): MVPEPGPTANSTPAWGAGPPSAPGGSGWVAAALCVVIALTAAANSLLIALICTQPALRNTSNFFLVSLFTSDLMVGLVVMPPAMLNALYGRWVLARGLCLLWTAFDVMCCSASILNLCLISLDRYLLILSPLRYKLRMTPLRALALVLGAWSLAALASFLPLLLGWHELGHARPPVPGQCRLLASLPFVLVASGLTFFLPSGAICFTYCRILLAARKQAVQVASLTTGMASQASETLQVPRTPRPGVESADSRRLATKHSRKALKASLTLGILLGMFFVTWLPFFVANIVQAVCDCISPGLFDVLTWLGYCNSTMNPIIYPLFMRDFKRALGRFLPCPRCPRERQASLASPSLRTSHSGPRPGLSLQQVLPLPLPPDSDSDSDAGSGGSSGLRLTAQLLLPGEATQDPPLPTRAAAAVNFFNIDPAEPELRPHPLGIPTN
Protocol: Binding Assay for Human 5-HT6 Receptor
Receptor source: Human recombinant expressed in FEK293 cells
Radioligand: [^3H]LSD (60-80 Ci/mmol)
Final ligand concentration —[1.5 nM]
Non-specific determinant: Methiothepin mesylate —[0.1 μM]
Reference compound: Methiothepin mesylate
Positive control: Methiothepin mesylate
Reactions were carried out in 50 μM TRIS-HCl (pH 7.4) containing 10 μM MgCl2, 0.5 mM EDTA for 60 minutes at 37° C. The reaction was terminated by rapid vacuum filtration onto glass fiber filters. Radioactivity trapped onto the filters was determined and compared to control values in order to ascertain any interactions of test compound(s) with the cloned serotonin 5-HT6 binding site.

5-HT6 receptor = details: literature; cited from earlier work
[1] = Pouzet et al. 2002; cited from earlier work

| SMILES | pKi (human 5-HT6 receptor) | further results |
| --- | --- | --- |
| COc1ccc(S(=O)(=O)n2ccc3c(CN4CCN(C)CC4)cccc32)cc1 [Compound 8, 1-(4-Methoxybenzenesulfonyl)-4-(4-methylpiperazin-1-ylmethyl)-1H-indole] | 7.54 |  |
| Cc1ccc(S(=O)(=O)n2ccc3c(CN4CCNCC4)cccc32)cc1 [Compound 38, 1-(4-Methylbenzenesulfonyl-4-(piperazin-1-ylmethyl)-1H-indoledihydrochloride] | 7.97 |  |
| CN1CCN(Cc2cccc3c2ccn3S(=O)(=O)c2ccc(Br)cc2)CC1 [Compound 2, 1-(4-Bromobenzenesulfonyl)-4-(4-methylpiperazin-1-ylmethyl)-1H-indole] | 7.63 |  |
| CN1CCN2c3ccccc3Cc3ccccc3C2C1 (stereo not drawn) [mianserin] |  | affinity for the 5-HT6 receptor (5-HT6 receptor): high affinity |
| CN1CCN(Cc2cccc3c2c(Cl)cn3S(=O)(=O)c2ccccc2)CC1 [Compound 27, 3-Chloro-1-benzenesulfonyl-4-(4-methylpiperazin-1-ylmethyl)-1H-indole] | 7.27 |  |
| CN1CCN(Cc2cccc3c2c(Cl)cn3S(=O)(=O)c2cccc(Cl)c2)CC1 [Compound 33, 3-Chloro-1-(3-chlorobenzenesulfonyl)-4-(4-methylpiperazin-1-ylmethyl)-1H-indole] | 7.57 |  |
| Cc1ccc(S(=O)(=O)n2cc(Cl)c3c(CN4CCN(C)CC4)cccc32)cc1 [Compound 29, 3-Chloro-1-(4-methylbenzenesulfonyl)-4-(4-methylpiperazin-1-ylmethyl)-1H-indole] | 6.65 |  |
| CC(C)c1ccc(S(=O)(=O)n2cc(Br)c3c(CN4CCN(C)CC4)cccc32)cc1 [Compound 20, 3-Bromo-1-[4-(1-Methylethyl)benzenesulfonyl]-4-(4-methylpiperazin-1-ylmethyl)-1H-indole] | 6.56 |  |
| Cc1ccc(S(=O)(=O)n2ccc3c(CN4CCN(C)CC4)cccc32)cc1 [Compound 5, 1-(4-Methylbenzenesulfonyl)-4-(4-methylpiperazin-1-ylmethyl)-1H-indole] | 8.10 |  |
| CN1CCN(Cc2cccc3c2c(Br)cn3S(=O)(=O)c2ccccc2)CC1 [Compound 18, 1-Benzenesulfonyl-3-bromo-4-(4-methylpiperazin-1-ylmethyl)-1H-indole] | 7.52 |  |
| CN(C)CCC=C1c2ccccc2CCc2ccccc21 [amitriptyline] |  | affinity for the 5-HT6 receptor (5-HT6 receptor): high affinity |
| O=S(=O)(c1ccccc1)n1ccc2c(CN3CCNCC3)cccc21 [Compound 37, 1-Benzenesulfonyl-4-(piperazin-1-ylmethyl)-1H-indole dihydrochloride] | 8.11 |  |
| CN1CCN(Cc2cccc3c2c(Br)cn3S(=O)(=O)c2ccc(F)cc2)CC1 [Compound 22, 3-Bromo-1-(4-fluorobenzenesulfonyl)-4-(4-methylpiperazin-1-ylmethyl)-1H-indole] | 6.91 |  |
| CC(C)c1ccc(S(=O)(=O)n2cc(Cl)c3c(CN4CCN(C)CC4)cccc32)cc1 [Compound 28, 3-Chloro-1-[4-(1-methylethyl)benzenesulfonyl]-4-(4-methylpiperazin-1-ylmethyl)-1H-indole] | 7.00 |  |
| CN1CCN(Cc2cccc3c2c(Br)cn3S(=O)(=O)c2cccc(Cl)c2)CC1 [Compound 24, 3-Bromo-1-(3-chlorobenzenesulfonyl)-4-(4-methylpiperazin-1-ylmethyl)-1H-indole] | 7.12 |  |
| COc1ccc(NS(=O)(=O)c2sc3ccc(Cl)cc3c2C)cc1N1CCNCC1 [SB-271046, 5-Chloro-N-(4-methoxy-3-piperazin-1-ylphenyl)-3-methyl-2-benzothiophenesulfonamide] |  | activity in animal tests related to positive or negative symptoms of schizophrenia [1]: inactive |
| CN1CCN(Cc2cccc3c2ccn3S(=O)(=O)c2ccccc2Br)CC1 [Compound 6, 1-(2-Bromobenzenesulfonyl)-4-(4-methylpiperazin-1-ylmethyl)-1H-indole] | 8.84 |  |
| CC(C)c1ccc(S(=O)(=O)n2ccc3c(CN4CCN(C)CC4)cccc32)cc1 [Compound 4, 1-[4-(1-Methylethyl)benzenesulfonyl]-4-(4-methylpiperazin-1-ylmethyl)-1H-indole] | 7.95 |  |
| CN1CCN(Cc2cccc3c2ccn3S(=O)(=O)c2cccc(Cl)c2)CC1 [Compound 41, 1-(3-chlorobenzenesulfonyl)-4-(4-methylpiperazin-1-ylmethyl)-1H-indole] | 7.88 |  |
| CN1CCN(Cc2cccc3c2c(Br)cn3S(=O)(=O)c2cccc3ccccc23)CC1 [Compound 25, 3-Bromo-1-(1-naphthylsulfonyl)-4-(4-methylpiperazin-1-ylmethyl)-1H-indole] | 7.01 |  |
| CN1CCN(Cc2cccc3c2c(Cl)cn3S(=O)(=O)c2ccccc2Br)CC1 [Compound 30, 3-Chloro-1-(2-bromobenzenesulfonyl)-4-(4-methylpiperazin-1-ylmethyl)-1H-indole] | 7.04 |  |
| COc1ccc(S(=O)(=O)n2ccc3c(CN4CCN(C)CC4)cccc32)c(Br)c1 [Compound 3, 1-(2-Bromo-4-methoxybenzenesulfonyl)-4-(4-methylpiperazin-1-ylmethyl)-1H-indole] | 8.07 |  |
| CN1CCN(Cc2cccc3c2ccn3S(=O)(=O)c2ccc(F)cc2)CC1 [Compound 7, 1-(4-Fluorobenzenesulfonyl)-4-(4-methylpiperazin-1-ylmethyl)-1H-indole] | 8.00 |  |
| O=S(=O)(c1ccccc1Br)n1ccc2c(CN3CCNCC3)cccc21 [Compound 36, 1-(2-Bromobenzenesulfonyl)-4-(piperazin-1-ylmethyl)-1H-indole dihydrochloride] | 9.03 |  |
| CN1CCN(Cc2cccc3c2ccn3S(=O)(=O)c2ccccc2)CC1 [Compound 1, 1-Benzenesulfonyl-4-(4-methylpiperazin-1-ylmethyl)-1H-indole] | 8.19 |  |
| CN1CCN(Cc2cccc3c2c(Cl)cn3S(=O)(=O)c2cccc3ccccc23)CC1 [Compound 34, 3-Chloro-1-(1-naphthylsulfonyl)-4-(4-methylpiperazin-1-ylmethyl)-1H-indole] | 6.78 |  |
| CN1CCN(Cc2cccc3c2ccn3S(=O)(=O)c2cccc3ccccc23)CC1 [Compound 39, 1-Naphthylsulfonyl-4-(4-methylpiperazin-1-ylmethyl)-1H-indole] | 8.32 |  |
